Laboratory results: patent US20170306409A1, “CANCER PATIENT SELECTION FOR ADMINISTRATION OF WNT SIGNALING INHIBITORS USING RNF43 MUTATION STATUS” (NOVARTIS AG, priority 2012, published 2017)
Where two headings read alike, the source gives them in different places.

Assays:
Format in all cases: cell-based, human
Panc 03.27 = experiment: cell line proliferation assay (Cell Titer Glo)
Protocol: (§1) The sensitivity of pancreatic cells to LGK974 treatment were tested in a cellular proliferation assay in vitro. Twenty four human pancreatic cancer cell lines were treated with or without LGK974. Cellular proliferation data was generated in 384 well format. Cells were harvested and resuspended in their appropriate growth medium at a density of 1.5×10^4 cells per mL. […] Plates were then transferred to incubators on the ACP-1 system (37° C., 5% CO2) and cells were allowed to attach overnight. […] Following compound addition, plates were returned to the incubator for 120 hours. The assay plates were read with the addition of 10 μL of 1× Cell Titer Glo (Promega G7573) according to the manufacturer's instructions. Plates were then incubated at room temperature for ten minutes and read on the integrated Perkin Elmer Viewlux (2 second exposure, 2× bin, high sensitivity). The raw data was normalized using the DMSO control wells within each plate and the curve fitting for IC50 determination was performed. Cell growth was measured five days later with Cell Titer Glo (Promega). […] As shown in TABLE 4 and Example 4, all four cell lines harbor RNF43 loss-of-function (LOF) mutations

KP-1NL = experiment: cell line proliferation assay (Cell Titer Glo)
Protocol: as §1

PK-1 = experiment: cell line proliferation assay (Cell Titer Glo)
Protocol: as §1

PSN-1 = experiment: cell line proliferation assay (Cell Titer Glo)
Protocol: as §1

Panc 10.05 = experiment: cell line proliferation assay (Cell Titer Glo)
Protocol: as §1

SUIT-2 = experiment: cell line proliferation assay (Cell Titer Glo)
Protocol: as §1

HPAFII = experiment: cell line proliferation assay (Cell Titer Glo)
Protocol: as §1

TCC-PAN2 = experiment: cell line proliferation assay (Cell Titer Glo); conditions: for IC50: Cell Titer Glo, read-out: LGK974 IC50s in cell line proliferation assay
Protocol: as §1

KP-3 = experiment: cell line proliferation assay (Cell Titer Glo)
Protocol: as §1

Panc 05.04 = experiment: cell line proliferation assay (Cell Titer Glo)
Protocol: as §1

PA-TU-8988T = experiment: cell line proliferation assay (Cell Titer Glo)
Protocol: as §1

PA-TU-8988S = experiment: cell line proliferation assay (Cell Titer Glo)
Protocol: as §1

Axin2, SU86.86 = experiment: Axin2 qPCR assay (pathway inhibition)
Protocol: (§2) For reverse transcription and quantitative PCR (qPCR), total RNA was extracted from cells or tumors using the RNeasy Plus Mini Kit (Qiagen). 1 μg of RNA were reverse transcribed with Taqman Reverse Transcription Reagents (Applied Biosystems) according to the manufacturer's instruction. Quantitative PCR was performed in 12 μl reactions consisting of 0.6 μl of 20× Taqman probe and PCR primer mix, 6 μl 2× Taqman FAST Advanced Master Mix (Applied Biosystems), and 5.4 μl diluted cDNA template. The thermocycling conditions utilized were 20 seconds at 95° C., followed by 40 cycles of 1 second at 95° C. and 20 seconds at 60° C. All experiments were performed in quadruplicates. Gene expression analysis was performed using the comparative ΔΔCT method and normalized with the housekeeping gene GUSB or 18S. The Taqman probes were purchased from Applied Biosystems.

Axin2, BxPC3 = experiment: Axin2 qPCR assay (pathway inhibition)
Protocol: as §2

Axin2, PANC-1 = experiment: Axin2 qPCR assay (pathway inhibition)
Protocol: as §2

Axin2, PK45H = experiment: Axin2 qPCR assay (pathway inhibition)
Protocol: as §2

Axin2, SW1990 = experiment: Axin2 qPCR assay (pathway inhibition)
Protocol: as §2

Axin2, SUIT-2 = experiment: Axin2 qPCR assay (pathway inhibition)
Protocol: as §2

Axin2, PaTu-8988T = experiment: Axin2 qPCR assay (pathway inhibition)
Protocol: as §2

Axin2, Panc04.03 = experiment: Axin2 qPCR assay (pathway inhibition)
Protocol: as §2

Axin2, HuPT3 = experiment: Axin2 qPCR assay (pathway inhibition)
Protocol: as §2

Axin2, Panc05.04 = experiment: Axin2 qPCR assay (pathway inhibition)
Protocol: as §2

Axin2, MIA CaPa-2 = experiment: Axin2 qPCR assay (pathway inhibition)
Protocol: as §2

Axin2, T3M4 = experiment: Axin2 qPCR assay (pathway inhibition)
Protocol: as §2

RNF43 mRNA, YAPC cells = experiment: quantitative RT-PCR gene expression analysis; conditions: 1 μM of LGK974
Protocol: FIG. 4(a) is a bar graph showing that the depletion of β-catenin decreases mRNA level of AXIN2 and RNF43. Cells were treated with siRNA, and relative mRNA levels of indicated genes were analyzed by quantitative RT-PCR. […] YAPC cells were treated with 3 μM of IWP2 or 1 μM of LGK974, and subjected to gene expression analysis by quantitative RT-PCR.
as §2
Consistent with this observation, treatment of Porcupine inhibitor IWP2 or LGK974 increased the cell surface level of Frizzled and decreased the mRNA levels of AXIN2 and RNF43. See, FIG. 4(b). […]

[1] = Homo sapiens, 120 hours, Cell Titer Glo, read-out: LGK974 IC50s in cell line proliferation assay

Cc1cc(-c2ncc(CC(=O)Nc3ccc(-c4cnccn4)cn3)cc2C)ccn1 [LGK974, 2-[5-methyl-6-(2-methylpyridin-4-yl)pyridin-3-yl]-N-[5-(pyrazin-2-yl)pyridin-2-yl]acetamide]
IC50 (Panc 03.27; Homo sapiens, PANC-03-27, Panc 03.27, 120 hours, Cell Titer Glo, read-out: LGK974 IC50s in cell line proliferation assay): > 2000 nM
Inhibition fold change (1-Treated/Control) (Panc 03.27; Panc03.27): 0.06
Inhibition fold change (1-Treated/Control) (KP-1NL): 0.00
IC50 (KP-1NL; [1]): > 2000 nM
Inhibition fold change (1-Treated/Control) (PK-1): 0.00
IC50 (PK-1; [1]): > 2000 nM
Inhibition fold change (1-Treated/Control) (PSN-1): 0.06
IC50 (PSN-1; Homo sapiens, PSN1, 120 hours, Cell Titer Glo, read-out: LGK974 IC50s in cell line proliferation assay): > 2000 nM
IC50 (Panc 10.05; Homo sapiens, Panc1005, Panc 10.05, 120 hours, Cell Titer Glo, read-out: LGK974 IC50s in cell line proliferation assay): > 2000 nM
Inhibition fold change (1-Treated/Control) (Panc 10.05; Panc10.05): 0.02
Inhibition fold change (1-Treated/Control) (SUIT-2): 0.00
IC50 (SUIT-2; [1]): > 2000 nM
Inhibition fold change (1-Treated/Control) (HPAFII): 0.50
IC50 (HPAFII; Homo sapiens, HPAF-II, 120 hours, Cell Titer Glo, read-out: LGK974 IC50s in cell line proliferation assay): 33.6 nM
Inhibition fold change (1-Treated/Control) (TCC-PAN2): 0.02
IC50 (TCC-PAN2; 120 hours): > 2000 nM
IC50 (TCC-PAN2; Homo sapiens, 120 h): > 1700 nM
Inhibition fold change (1-Treated/Control) (KP-3): 0.02
IC50 (KP-3; [1]): > 2000 nM
IC50 (Panc 05.04; Homo sapiens, Panc 05.04, 120 hours, Cell Titer Glo, read-out: LGK974 IC50s in cell line proliferation assay): > 2000 nM
Inhibition fold change (1-Treated/Control) (Panc 05.04; Panc05.04): 0.09
Inhibition fold change (1-Treated/Control) (PA-TU-8988T): 0.00
IC50 (PA-TU-8988T; Homo sapiens, PaTu 8988t, 120 hours, Cell Titer Glo, read-out: LGK974 IC50s in cell line proliferation assay): > 2000 nM
Inhibition fold change (1-Treated/Control) (PA-TU-8988S): 0.40
IC50 (PA-TU-8988S; Homo sapiens, PaTuÂ 8988s, 120 hours, Cell Titer Glo, read-out: LGK974 IC50s in cell line proliferation assay): 11.6 nM
Pathway inhibition in Axin2 qPCR assay (Axin2, SU86.86): Yes
Pathway inhibition in Axin2 qPCR assay (Axin2, BxPC3): Yes
Pathway inhibition in Axin2 qPCR assay (Axin2, PANC-1): Yes
Pathway inhibition in Axin2 qPCR assay (Axin2, PK45H): No
Pathway inhibition in Axin2 qPCR assay (Axin2, SW1990): Yes
Pathway inhibition in Axin2 qPCR assay (Axin2, SUIT-2): Yes
Pathway inhibition in Axin2 qPCR assay (Axin2, PaTu-8988T): Yes
Pathway inhibition in Axin2 qPCR assay (Axin2, Panc04.03): No
Pathway inhibition in Axin2 qPCR assay (Axin2, HuPT3): Yes
Pathway inhibition in Axin2 qPCR assay (Axin2, Panc05.04): Yes
Pathway inhibition in Axin2 qPCR assay (Axin2, MIA CaPa-2): No
Pathway inhibition in Axin2 qPCR assay (Axin2, T3M4): No
mRNA level of RNF43 (RNF43 mRNA, YAPC cells): decreased
